Source: patent US9376426B2, “Pyridazinone derivatives” (MERCK PATENT GMBH, priority 2009, dated 2016)
Where a name gives a salt, the structure may show the parent alone.

Assays:
[1] = target: T1, Met kinase (Homo sapiens, UniProt P08581); test: Met kinase inhibition (cell); type: cell-based
[2] = target: T1, Met kinase; test: Met kinase inhibition, flashplate method (enzyme); type: biochemical; design: 6His (N); purchased Upstate 14-526; host or cells: Sf21 insect cells (S. frugiperda), baculovirus
From the text: Measurement of Met Kinase Activity
According to the manufacturer's data (Met, active, upstate, catalogue No. 14-526), Met kinase is expressed for the purposes of protein production in insect cells (Sf21; S. frugiperda) and subsequent affinity-chromatographic purification as “N-terminal 6His-tagged” recombinant human protein in a baculovirus expression vector.
Flashplate Method (Met Kinase)
The test plates used are 96-well Flashplate® microtitre plates from Perkin Elmer (Cat. No. SMP200). The components of the kinase reaction described below are pipetted into the assay plate. The Met kinase and the substrate poly Ala-Glu-Lys-Tyr, (pAGLT, 6:2:5:1), are incubated for 3 hrs at room temperature with radioactively labelled ^33P-ATP in the presence and absence of test substances in a total volume of 100 μl. The reaction is terminated using 150 μl of a 60 mM EDTA solution. After incubation for a further 30 min at room temperature, the supernatants are filtered off with suction, and the wells are washed three times with 200 μl of 0.9% NaCl solution each time. The measurement of the bound radioactivity is carried out by means of a scintillation measuring instrument (Topcount NXT, Perkin-Elmer).
The full value used is the inhibitor-free kinase reaction. This should be approximately in the range 6000-9000 cpm. The pharmacological zero value used is staurosporin in a final concentration of 0.1 mM. The inhibitory values (IC50) are determined using the RS1_MTS program.
Kinase reaction conditions per well:
10 μl of substance to be tested in assay buffer with 10% of DMSO
10 μl of ATP (final concentration 1 μM cold, 0.35 μCi of ^33P-ATP)
50 μl of Met kinase/substrate mixture in assay buffer;
• (10 ng of enzyme/well, 50 ng of pAGLT/well) • Solutions used: • Assay buffer: • 50 mM HEPES • 3 mM magnesium chloride • 3 μM sodium orthovanadate • 3 mM manganese(II) chloride • 1 mM dithiothreitol (DTT) • pH=7.5 (to be set using sodium hydroxide) • Stop solution: • 60 mM Titriplex III (EDTA) • ^33P-ATP: Perkin-Elmer; • Met kinase: Upstate, Cat. No. 14-526, Stock 1 μg/10 μl; spec. activity 954 U/mg; • Poly-Ala-Glu-Lys-Tyr, 6:2:5:1:Sigma Cat. No. P1152 In-Vivo Tests Experimental Procedure: […]

T1 sequence (P08581 25-1390): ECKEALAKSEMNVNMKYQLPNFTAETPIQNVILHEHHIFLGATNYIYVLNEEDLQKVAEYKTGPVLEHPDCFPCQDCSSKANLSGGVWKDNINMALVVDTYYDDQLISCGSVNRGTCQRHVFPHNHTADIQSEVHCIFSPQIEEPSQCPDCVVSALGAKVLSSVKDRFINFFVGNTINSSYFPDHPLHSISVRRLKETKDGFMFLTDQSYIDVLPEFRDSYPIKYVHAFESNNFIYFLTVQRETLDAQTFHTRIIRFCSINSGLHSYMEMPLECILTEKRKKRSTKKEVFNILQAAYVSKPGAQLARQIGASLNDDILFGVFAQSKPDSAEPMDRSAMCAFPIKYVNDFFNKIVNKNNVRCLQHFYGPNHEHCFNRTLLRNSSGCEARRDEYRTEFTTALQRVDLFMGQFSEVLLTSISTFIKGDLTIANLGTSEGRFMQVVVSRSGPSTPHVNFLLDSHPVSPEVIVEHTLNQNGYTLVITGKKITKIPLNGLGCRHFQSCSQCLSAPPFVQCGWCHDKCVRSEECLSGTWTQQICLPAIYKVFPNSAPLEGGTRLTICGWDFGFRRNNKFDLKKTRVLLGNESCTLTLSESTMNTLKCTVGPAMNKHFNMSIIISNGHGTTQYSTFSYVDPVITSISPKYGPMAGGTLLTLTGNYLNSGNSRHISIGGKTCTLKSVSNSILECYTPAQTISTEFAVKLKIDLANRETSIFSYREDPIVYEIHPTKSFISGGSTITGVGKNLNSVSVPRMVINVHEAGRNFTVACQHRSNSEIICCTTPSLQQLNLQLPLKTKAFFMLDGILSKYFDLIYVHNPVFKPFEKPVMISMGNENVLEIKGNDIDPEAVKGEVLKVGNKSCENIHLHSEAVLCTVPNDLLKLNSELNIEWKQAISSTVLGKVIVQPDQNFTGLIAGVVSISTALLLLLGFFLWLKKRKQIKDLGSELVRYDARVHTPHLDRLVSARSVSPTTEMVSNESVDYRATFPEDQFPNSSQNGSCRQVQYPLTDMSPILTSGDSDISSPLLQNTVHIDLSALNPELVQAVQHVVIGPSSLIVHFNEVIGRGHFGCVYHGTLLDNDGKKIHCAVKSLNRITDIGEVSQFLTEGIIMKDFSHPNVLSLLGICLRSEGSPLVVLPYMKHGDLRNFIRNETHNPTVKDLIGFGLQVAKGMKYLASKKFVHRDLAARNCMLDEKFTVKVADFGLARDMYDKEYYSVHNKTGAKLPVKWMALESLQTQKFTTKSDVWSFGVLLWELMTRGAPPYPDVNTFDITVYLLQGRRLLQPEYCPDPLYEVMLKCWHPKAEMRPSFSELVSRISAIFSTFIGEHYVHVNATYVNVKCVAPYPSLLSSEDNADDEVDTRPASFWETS

Row | SMILES | IC50 [1] [nM] | IC50 [2] [nM]
1 | O=c1ccc(Nc2ccccc2)nn1Cc1cccc(-c2ncc(-c3cnn(C4CCNCC4)c3)cn2)c1 [Compound A2, 6-phenylamino-2-{3-[5-(1-piperidin-4-yl-1H-pyrazol-4-yl)pyrimidin-2-yl]benzyl}-2H-pyridazin-3-one] | 100 to 10000 | 1 to 100
2 | O=c1ccc(Oc2ccccc2)nn1Cc1cccc(-c2ncc(-c3cnn(CCN4CCCC4)c3)cn2)c1 [Compound A3, 6-phenoxy-2-(3-{5-[1-(2-pyrrolidin-1-ylethyl)-1H-pyrazol-4-yl]pyrimidin-2-yl}benzyl)-2H-pyridazin-3-one] | 100 to 10000 | 1 to 100
3 | O=c1ccc(Oc2ccccc2)nn1Cc1cccc(-c2ncc(-c3cnn(C4CCNCC4)c3)cn2)c1 [Compound A4, 6-phenoxy-2-{3-[5-(1-piperidin-4-yl-1H-pyrazol-4-yl)pyrimidin-2-yl]benzyl}-2H-pyridazin-3-one hydrochloride] | 100 to 10000 | 100 to 10000

Next, values leading:

Row | IC50 [1] [nM] | IC50 [2] [nM] | SMILES
4 | 100 to 10000 | 1 to 100 | CN(C)CCCOc1cnc(-c2cccc(Cn3nc(Nc4ccccc4)ccc3=O)c2)nc1 [Compound A1, 2-{3-[5-(3-dimethylaminopropoxy)pyrimidin-2-yl]benzyl}-6-phenylamino-2H-pyridazin-3-one]
5 | 100 to 10000 | 100 to 10000 | CN(C)CCCOc1cnc(-c2cccc(Cn3nc(C(N)=O)ccc3=O)c2)nc1 [Compound A8, 1-{3-[5-(3-dimethylaminopropoxy)pyrimidin-2-yl]benzyl}-6-oxo-1,6-dihydropyridazine-3-carboxamide]
